Results taken from article PMC9284842, “Allosteric activation of the metabolic enzyme GPD1 inhibits bladder cancer growth via the lysoPC-PAFR-TRPV2 axis” (Journal of Hematology & Oncology, 2022).

Tests used:
GPD1 [1] = target: T1, GPD1 (Homo sapiens, UniProt P21695); experiment: NADH absorbance at […] nm, initial rate of DHAP reduction; type: biochemical; conditions: 200 uM NADH, 8 mM DHAP, 1 uM GPD1, 20 mM TEA, 0.1 mg/mL BSA, I = 0.12 (NaCl); activator, proposed allosteric
T1 construct: purchased recombinant protein (Proteintech Ag4471); Red-NHS dye labelled for MST; source of enzyme in activity assay not restated
T1 sequence (P21695 1-349): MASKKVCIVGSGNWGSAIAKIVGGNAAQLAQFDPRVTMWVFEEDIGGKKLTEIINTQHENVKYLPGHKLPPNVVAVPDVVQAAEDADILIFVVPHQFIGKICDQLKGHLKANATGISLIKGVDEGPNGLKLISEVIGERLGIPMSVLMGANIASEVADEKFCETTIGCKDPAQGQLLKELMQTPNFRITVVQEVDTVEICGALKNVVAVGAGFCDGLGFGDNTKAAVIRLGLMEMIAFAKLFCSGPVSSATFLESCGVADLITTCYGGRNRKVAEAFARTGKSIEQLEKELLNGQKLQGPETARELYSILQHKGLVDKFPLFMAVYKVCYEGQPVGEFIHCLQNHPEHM

GPD1 [2] = target: T1, GPD1; experiment: microscale thermophoresis (Monolith NT.[…], Hill fit); type: binding

Kd (GPD1 [2]): 505 nM
SMILES: COc1cc(O)c2c(c1)oc(=O)c1c3cc(O)c(O)cc3oc21 [wedelolactone]
activation (GPD1 [1]): wedelolactone (WE) from Bioactive Compound Library Plus in MedChemExpress LLC had substantial activity
